Here are results for 16 compounds from US20170349593A1, “BTK INHIBITORS” (MERCK SHARP & DOHME CORP., priority 2014, published 2017).

Experiment [1] has as its target T1, BTK enzyme (recombinant full-length BTK, hBTK) (Homo sapiens, UniProt Q06187).
T1 construct: recombinant protein from baculovirus-transfected S 19 cells: full-length BTK, 6 HIS-tag cleaved; 6 HIS-tag (cleaved yes); made in house
Description: Btk enzyme activity assay (LANCE TR-FRET). In kind it is biochemical. As to conditions: 50 pM hBTK, 25 μM ATP, 60 minute compound and enzyme incubation, concentration range 1 μM to 0.017 nM, read-out: BTK binding IC50.

Experiment [2] deals with adenosine uptake into HeLa cells. Kind of experiment: [3H]Adenosine uptake assay. The experiment is classed as cell-based. The note with it: Homo sapiens; accumulation of [3H]adenosine into HeLa cells; concentration range 10 μM to 0.032 nM; read-out: ADU inhibition IC50. An outline of the steps:
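HeLa cells (25 000/well), plated overnight, were preincubated 30 minutes at ambient temperature with compound in HBSS + 5% FBS. Ten-point titrations ran from 10 μM to 0.032 nM final. [3H]adenosine was added from a 500 nM solution for 60 minutes, and uptake was measured by scintillation proximity counting; IC50 came from a 4-parameter fit.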

Bounds are passed on as bounds.

T1 sequence (Q06187 whole entry): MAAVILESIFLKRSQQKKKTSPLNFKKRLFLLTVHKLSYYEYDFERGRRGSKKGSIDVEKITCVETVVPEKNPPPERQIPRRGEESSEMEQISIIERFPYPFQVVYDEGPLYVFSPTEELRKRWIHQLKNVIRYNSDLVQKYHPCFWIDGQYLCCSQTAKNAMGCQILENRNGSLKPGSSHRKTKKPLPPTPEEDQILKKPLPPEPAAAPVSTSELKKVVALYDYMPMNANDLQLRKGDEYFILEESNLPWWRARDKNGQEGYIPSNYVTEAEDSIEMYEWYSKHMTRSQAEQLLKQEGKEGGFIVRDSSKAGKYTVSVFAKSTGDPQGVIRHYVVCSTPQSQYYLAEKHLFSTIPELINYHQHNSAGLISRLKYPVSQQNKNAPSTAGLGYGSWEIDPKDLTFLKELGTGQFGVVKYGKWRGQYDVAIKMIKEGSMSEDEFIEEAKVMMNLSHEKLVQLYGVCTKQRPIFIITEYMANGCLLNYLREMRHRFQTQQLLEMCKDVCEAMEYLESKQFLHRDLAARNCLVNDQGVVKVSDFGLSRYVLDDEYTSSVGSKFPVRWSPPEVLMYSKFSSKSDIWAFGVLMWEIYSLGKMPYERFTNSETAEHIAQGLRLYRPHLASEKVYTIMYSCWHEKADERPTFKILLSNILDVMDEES

Usually IC50 stands for the point on the concentration scale where inhibition reaches its midpoint. For `COc1cc(C(=O)Nc2cc(C(F)(F)F)ccn2)ccc1-c1nc([C@H]2CN(C(=O)C3(C)CC3)[C@@H](C)CO2)n2c(Cl)cnc(N)c12` [Example 18, 4-(8-amino-5-chloro-3-{(2R,5S)-5-methyl-4-[(1-methylcyclopropyl)carbonyl]morpholin-2-yl}imidazo[1,5-a]pyrazin-1-yl)-3-methoxy-N-[4-(trifluoromethyl)pyridin-2-yl]benzamide], the IC50 came out at 2.8 nM in experiment [1] and 3230 nM in experiment [2].
For `CCc1cnc(N)c2c(-c3ccc(C(=O)Nc4cc(C(F)(F)F)ccn4)cc3OC)nc([C@H]3CN(C(=O)C4CC4)[C@@H](C)CO3)n12` [Example 9, 4-{8-amino-3-[(2R,5S)-4-(cyclopropylcarbonyl)-5-methylmorpholin-2-yl]-5-ethylimidazo[1,5-a]pyrazin-1-yl}-3-methoxy-N-[4-(trifluoromethyl)pyridin-2-yl]benzamide], in that order: 3.76 nM and 2680 nM.
Take `C[C@H]1CO[C@@H](c2nc(-c3ccc(C(=O)Nc4cc(C5CC5)ccn4)cc3F)c3c(N)nccn23)CN1C1CCOCC1` [Example 61, 4-{8-amino-3-[(2R,5S)-5-methyl-4-(tetrahydro-2H-pyran-4-yl)morpholin-2-yl]imidazo[1,5-a]pyrazin-1-yl}-N-(4-cyclopropylpyridin-2-yl)-3-fluorobenzamide]: the IC50 in experiment [1] stood at 0.814 nM; in experiment [2] it was 386 nM.
For `CCOc1cc(C(=O)Nc2cc(C(F)(F)F)ccn2)ccc1-c1nc([C@H]2CN(C(C)=O)[C@@H](C)CO2)n2c(Cl)cnc(N)c12` [Example 20, 4-{3-[(2R,5S)-4-acetyl-5-methylmorpholin-2-yl]-8-amino-5-chloroimidazo[1,5-a]pyrazin-1-yl}-3-ethoxy-N-[4-(trifluoromethyl)pyridin-2-yl]benzamide], in that order: 1.36 nM and 3910 nM.
In the same order, the values of `Nc1nccn2c([C@H]3CN(C4COC4)[C@H](CO)CO3)nc(-c3ccc(C(=O)Nc4cc(C(F)(F)F)ccn4)cc3F)c12` [Example 66, 4-{8-amino-3-[(2R,5R)-5-(hydroxymethyl)-4-oxetan-3-ylmorpholin-2-yl]imidazo[1,5-a]pyrazin-1-yl}-3-fluoro-N-[4-(trifluoromethyl)pyridin-2-yl]benzamide] are 1.23 nM and 24.6 nM.
In the same order, the values of `COc1cc(C(=O)Nc2cc(C(F)(F)F)ccn2)ccc1-c1nc([C@H]2CN(C(=O)C3CCOCC3)[C@@H](C)CO2)n2ccnc(N)c12` [Example 49, 4-{8-amino-3-[(2R,5S)-5-methyl-4-(tetrahydro-2H-pyran-4-ylcarbonyl)morpholin-2-yl]imidazo[1,5-a]pyrazin-1-yl}-3-methoxy-N-[4-(trifluoromethyl)pyridin-2-yl]benzamide] are 1.74 nM and 1780 nM.
`Nc1nccn2c([C@H]3CN[C@H](CO)CO3)nc(-c3ccc(C(=O)Nc4cc(C(F)(F)F)ccn4)cc3F)c12` [Example 67, 4-{8-amino-3-[(2R,5R)-5-(hydroxymethyl)morpholin-2-yl]imidazo[1,5-a]pyrazin-1-yl}-3-fluoro-N-[4-(trifluoromethyl)pyridin-2-yl]benzamide]: the 50% inhibitory concentration (IC50) in experiment [1] worked out at 1.97 nM; in experiment [2], 129 nM.
For `CC(=O)N1C[C@H](c2nc(-c3ccc(C(=O)Nc4cc(C(F)(F)F)ccn4)cc3F)c3c(N)nccn23)OC[C@H]1C` [Example 71, 4-{3-[(2R,5R)-4-acetyl-5-methylmorpholin-2-yl]-8-aminoimidazo[1,5-a]pyrazin-1-yl}-3-fluoro-N-[4-(trifluoromethyl)pyridin-2-yl]benzamide], in that order: 6.63 nM and 110 nM.
As to `C[C@H]1CO[C@@H](c2nc(-c3ccc(C(=O)Nc4cc(C(F)(F)F)ccn4)cc3F)c3c(N)nccn23)CN1C1CCOCC1` [Example 75, 4-{8-amino-3-[(2R,5S)-5-methyl-4-(tetrahydro-2H-pyran-4-yl)morpholin-2-yl]imidazo[1,5-a]pyrazin-1-yl}-3-fluoro-N-[4-(trifluoromethyl)pyridin-2-yl]benzamide], the 50% inhibitory concentration (IC50) in experiment [1] worked out at 0.329 nM; in experiment [2], 350 nM.
In the same order, the values of `CCOc1cc(C(=O)Nc2cc(C(F)(F)F)ccn2)cc(F)c1-c1nc([C@H]2CN(C(=O)[C@H](C)O)[C@@H](C)CO2)n2c(Cl)cnc(N)c12` [Example 101, 4-(8-amino-5-chloro-3-{(2R,5S)-4-[(2S)-2-hydroxypropanoyl]-5-methylmorpholin-2-yl}imidazo[1,5-a]pyrazin-1-yl)-3-ethoxy-5-fluoro-N-[4-(trifluoromethyl)pyridin-2-yl]benzamide] are 0.665 nM and 2720 nM.
For `C[C@H]1CO[C@@H](c2nc(-c3ccc(C(=O)Nc4cc(C(F)(F)F)ccn4)cc3F)c3c(N)nccn23)CN1C(=O)C1(C)CC1` [Example 85, 4-(8-amino-3-{(2R,5S)-5-methyl-4-[(1-methylcyclopropyl)carbonyl]morpholin-2-yl}imidazo[1,5-a]pyrazin-1-yl)-3-fluoro-N-[4-(trifluoromethyl)pyridin-2-yl]benzamide], in that order: 0.548 nM and 189 nM.
For `COc1cc(C(=O)Nc2cc(C(F)(F)F)ccn2)ccc1-c1nc([C@H]2CN(Cc3[nH]cnc3C)[C@@H](C)CO2)n2ccnc(N)c12` [Example 53, 4-(8-amino-3-{(2R,5S)-5-methyl-4-[(4-methyl-1H-imidazol-5-yl)methyl]morpholin-2-yl}imidazo[1,5-a]pyrazin-1-yl)-3-methoxy-N-[4-(trifluoromethyl)pyridin-2-yl]benzamide], in that order: 5.8 nM and 1030 nM.
In the case of `CCOc1cc(C(=O)Nc2cc(C(F)(F)F)ccn2)ccc1-c1nc([C@H]2CN(C(=O)CC)[C@@H](C)CO2)n2c(Cl)cnc(N)c12` [Example 19, 4-{8-amino-5-chloro-3-[(2R,5S)-5-methyl-4-propanoylmorpholin-2-yl]imidazo[1,5-a]pyrazin-1-yl}-3-ethoxy-N-[4-(trifluoromethyl)pyridin-2-yl]benzamide], the 50% inhibitory concentration (IC50) in experiment [1] is 1.23 nM; in experiment [2] it was ≥ 10000 nM.
In the same order, the values of `CCc1cnc(N)c2c(-c3ccc(C(=O)Nc4cc(C(F)(F)F)ccn4)cc3F)nc([C@H]3CN(C(=O)C4CC4)[C@@H](C)CO3)n12` [Example 110, 4-{8-amino-3-[(2R,5S)-4-(cyclopropylcarbonyl)-5-methylmorpholin-2-yl]-5-ethylimidazo[1,5-a]pyrazin-1-yl}-3-fluoro-N-[4-(trifluoromethyl)pyridin-2-yl]benzamide] are 0.674 nM and 533 nM.
Consider `COc1cc(C(=O)Nc2cc(C(F)(F)F)ccn2)ccc1-c1nc([C@H]2CN(C3CN(Cc4c(F)cccc4F)C3)[C@@H](C)CO2)n2ccnc(N)c12` [Example 30, 4-(8-amino-3-{(2R,5S)-4-[1-(2,6-difluorobenzyl)azetidin-3-yl]-5-methylmorpholin-2-yl}imidazo[1,5-a]pyrazin-1-yl)-3-methoxy-N-[4-(trifluoromethyl)pyridin-2-yl]benzamide], for which the IC50 in experiment [1] came out at 10.7 nM; in experiment [2] it was 1040 nM.
Take `C[C@H]1CC[C@@H](c2nc(-c3ccc(C(=O)Nc4cc(C#N)ccn4)cc3)c3c(N)nccn23)CN1C(=O)C1CC1` [Example 89, 4-{8-amino-3-[(3R,6S)-1-(cyclopropylcarbonyl)-6-methylpiperidin-3-yl]imidazo[1,5-a]pyrazin-1-yl}-N-(4-cyanopyridin-2-yl)benzamide]: the IC50 in experiment [1] is 0.297 nM; in experiment [2], 47.5 nM.
